For 24 compounds, IC50 results are on record in ChEMBL document CHEMBL1127275, “Peptide based P21RAS farnesyl transferase inhibitors: systematic modification of the tetrapeptide CA1A2X motif” (Bioorg Med Chem Lett, 1994).

Molecules are shown by their SMILES.

The target of the experiment is Protein farnesyltransferase (Rattus norvegicus, UniProt Q02293+Q04631). The experiment can be described thus: In vitro inhibitory concentration evaluated against P21ras Farnesyl transferase. The class given is protein-complex assay.
In turn, `CN[C@@H](CS)C(=O)N[C@H](C(=O)N[C@@H](Cc1ccccc1)C(=O)N[C@@H](CCSC)C(=O)O)C(C)C` registered an IC50 of 420 nM. Take `CSCC[C@H](NC(=O)[C@H](Cc1ccccc1)NC(=O)[C@H](C(C)C)N(C)C(=O)[C@@H](N)CS)C(=O)O`: the IC50 was found to be 250 nM. `CSCC[C@H](NC(=O)[C@H](Cc1ccccc1)NC(=O)C1(NC(=O)[C@@H](N)CS)CCCCC1)C(=O)O` gave an IC50 of 1200 nM. Then `CSCC[C@H](NC(=O)[C@H](Cc1ccccc1)NC[C@@H](NC(=O)[C@@H](N)CS)C(C)C)C(=O)O`, with 126 nM; and `CSCC[C@H](NC(=O)[C@H](Cc1ccccc1)N(C)C(=O)[C@@H](NC(=O)[C@@H](N)CS)C(C)C)C(=O)O`, with 360 nM. Then `CSCC[C@H](NC(=O)[C@H](CCc1ccccc1)NC(=O)[C@@H](NC(=O)[C@@H](N)CS)C(C)C)C(=O)O`, with 120 nM; and `CSCC[C@H](NC(=O)[C@H](Cc1ccccc1)NC(=O)[C@@H](NC(=O)[C@@H](N)CC(=O)O)C(C)C)C(=O)O`, with 250000 nM; and `CSCC[C@H](NC(=O)[C@@H](NC(=O)[C@@H](NC(=O)[C@@H](N)CS)C(C)C)c1ccccc1)C(=O)O`, with 696 nM.

`CSCC[C@H](NC(=S)[C@H](Cc1ccccc1)NC(=O)[C@@H](NC(=O)[C@@H](N)CS)C(C)C)C(=O)O` came in with an IC50 of 17 nM.

With `CSCC[C@H](NC(=O)[C@H](Cc1c[nH]c2ccccc12)NC(=O)[C@@H](NC(=O)[C@@H](N)CS)C(C)C)C(=O)O`, the IC50 was 14 nM. Then `CSCC[C@H](NC(=O)[C@H](Cc1ccccc1)NC(=O)[C@@H](NC[C@@H](N)CS)C(C)C)C(=O)O`, with 12 nM; and `CSCC[C@H](NC(=O)[C@H](Cc1ccccc1)NC(=O)[C@@H](NC(=O)[C@@H](N)Cc1cnc[nH]1)C(C)C)C(=O)O`, with 6800 nM.

In turn, `CSCC[C@H](NC(=O)[C@H](Cc1ccccc1)NC(=O)[C@@H](NC(=O)C[C@H](N)CS)C(C)C)C(=O)O` came in with an IC50 of 1800 nM.

For the compound `CC(C)[C@H](NC(=O)[C@@H](N)CS)C(=O)N[C@@H](Cc1ccccc1)C(=O)N[C@@H](Cc1ccccc1)C(=O)O`, the half-maximal inhibitory concentration (IC50) was found to be 400 nM. The result for `CSCC[C@H](NC(=O)[C@@H](NC(=O)[C@@H](NC[C@@H](N)CS)C(C)C)C(C)C)C(=O)O` reads 29 nM; that for `CSCC[C@H](NC(=O)[C@H](Cc1ccc2ccccc2c1)NC(=O)[C@@H](NC(=O)[C@@H](N)CS)C(C)C)C(=O)O`, 12 nM; that for `CSCC[C@H](NC(=O)[C@@H](NC(=O)[C@@H](NC(=O)[C@@H](N)CS)C(C)C)C(C)C)C(=O)O`, 68 nM.

The compound `CSCC[C@H](NC(=O)[C@H](Cc1ccccc1)NC(=O)[C@@H](NC(=O)[C@@H](N)CCC(=O)O)C(C)C)C(=O)O` showed a half-maximal inhibitory concentration (IC50) of 120000 nM. `CSCC[C@H](NC(=O)[C@H](Cc1ccccc1)NC(=O)[C@H](C)NC(=O)[C@@H](N)CS)C(=O)O`: half-maximal inhibition (IC50) was put at 241 nM. With `CSCC[C@H](NC(=O)[C@H](Cc1ccccc1)NC(=O)C(C)(C)NC(=O)[C@@H](N)CS)C(=O)O`, the IC50 amounted to 400 nM. `CSCC[C@@H](C(=O)O)N(C)C(=O)[C@H](Cc1ccccc1)NC(=O)[C@@H](NC(=O)[C@@H](N)CS)C(C)C` gave an IC50 of 1400 nM. Then `CCCC[C@H](NC(=O)[C@H](Cc1ccccc1)NC(=O)[C@@H](NC(=O)[C@@H](N)CS)C(C)C)C(=O)O`, with 950 nM. On to `CSCC[C@H](NC(=O)[C@H](Cc1ccccc1)NC(=O)[C@@H](NC(=O)[C@@H](N)CCS)C(C)C)C(=O)O` (stereo in doubt; form 1), for which the IC50 was 510 nM. The result for `CSCC[C@H](NC(=O)[C@H](Cc1ccccc1)NC(=O)[C@@H](NC(=O)[C@@H](N)CCS)C(C)C)C(=O)O` (stereo in doubt; form 2) reads 2700 nM.
